Measurements taken from patent US7736624B2, “Methods and compositions for diagnostic and therapeutic targeting of COX-2” (priority 2006, dated 2010).
pIC50: −log10 of the molar value. Like-named read-outs stand apart in the source and are kept apart here.

Experiments:
[1] = biological target: T1, COX-1 (Mus musculus, UniProt P22437); test: Macrophage assay (RAW264.7), COX-1; assay type: cell-based, murine; details: for pIC50: Table 3, macrophage assay
T1 sequence (P22437 1-602): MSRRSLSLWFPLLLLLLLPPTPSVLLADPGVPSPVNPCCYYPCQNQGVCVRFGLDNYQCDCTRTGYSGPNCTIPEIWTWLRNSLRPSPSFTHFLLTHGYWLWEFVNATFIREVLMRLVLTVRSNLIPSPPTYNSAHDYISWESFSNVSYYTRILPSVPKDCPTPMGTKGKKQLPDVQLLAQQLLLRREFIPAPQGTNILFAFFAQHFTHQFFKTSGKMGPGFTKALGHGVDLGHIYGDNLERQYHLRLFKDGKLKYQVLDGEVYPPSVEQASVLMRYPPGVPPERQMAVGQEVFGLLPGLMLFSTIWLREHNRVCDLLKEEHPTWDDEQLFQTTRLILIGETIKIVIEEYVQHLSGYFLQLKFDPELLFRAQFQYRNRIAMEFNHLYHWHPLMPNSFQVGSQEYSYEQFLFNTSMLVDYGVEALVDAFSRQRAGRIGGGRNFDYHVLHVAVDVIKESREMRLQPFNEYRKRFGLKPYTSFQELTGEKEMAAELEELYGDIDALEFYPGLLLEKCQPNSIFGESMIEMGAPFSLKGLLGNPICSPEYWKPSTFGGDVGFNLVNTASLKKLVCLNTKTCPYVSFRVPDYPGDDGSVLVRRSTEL
From the text: (§1) Thus, NSAID derivatives that are identified as potentially useful in the methods described herein can be further tested using, for example, the RAW264.7 murine macrophage cell line. These cells are readily available (for example, from the American Type Culture Collection (ATCC), Manassas, Va., United States of America) and are easily cultured in large numbers. They normally express low levels of COX-1 and very low to undetectable levels of COX-2. Upon exposure to bacterial lipopolysaccharide (LPS), however, COX-2 levels increase dramatically over the ensuing 24 hour period, and the cells produce PGD2 and PGE2 from endogenous arachidonic acid stores (generally, ˜1 nmol/10^7 cells total PG formation). After LPS exposure, the addition of exogenous arachidonic acid results in the formation of additional PGD2 and PGE2 as a result of metabolism by the newly synthesized COX-2.
(§2) This system provides a number of approaches for testing the inhibitory potency of COX-2-selective ligands (e.g., inhibitors). In general, following LPS activation, cells can be treated for 30 minutes with the desired concentrations of candidate derivative(s) in DMSO. ^14C-arachidonic acid can be added, and the cells can be incubated for 15 minutes at 37° C. Product formation can be assessed following extraction and TLC separation of the culture medium. Alternatively, the effects of candidate derivatives on PG synthesis from endogenous arachidonic acid can be assessed by incubating cells with desired concentrations of candidate derivatives 30 minutes prior to LPS exposure. Following a 24-hour incubation, medium can be collected and extracted, and the amount of PGD2 and/or PGE2 can be assayed by gas chromatography-mass spectrometry, liquid chromatography-mass spectrometry, or ELISA.

[2] = Fluorescence in buffer; assay type: physicochemical; details: for Fluor. λem: emission; for Fluor. λex: excitation
[3] = biological target: T2, ovine COX-1 (Ovis aries, UniProt P05979); test: IC50 determinations using purified enzymes (TLC assay), COX-1; assay type: biochemical; details: Table 3; assayed against purified enzymes
T2 construct: can be purified from ovine seminal vesicles by standard procedures; from tissue; host or cells: ovine seminal vesicles
T2 sequence (P05979 25-600): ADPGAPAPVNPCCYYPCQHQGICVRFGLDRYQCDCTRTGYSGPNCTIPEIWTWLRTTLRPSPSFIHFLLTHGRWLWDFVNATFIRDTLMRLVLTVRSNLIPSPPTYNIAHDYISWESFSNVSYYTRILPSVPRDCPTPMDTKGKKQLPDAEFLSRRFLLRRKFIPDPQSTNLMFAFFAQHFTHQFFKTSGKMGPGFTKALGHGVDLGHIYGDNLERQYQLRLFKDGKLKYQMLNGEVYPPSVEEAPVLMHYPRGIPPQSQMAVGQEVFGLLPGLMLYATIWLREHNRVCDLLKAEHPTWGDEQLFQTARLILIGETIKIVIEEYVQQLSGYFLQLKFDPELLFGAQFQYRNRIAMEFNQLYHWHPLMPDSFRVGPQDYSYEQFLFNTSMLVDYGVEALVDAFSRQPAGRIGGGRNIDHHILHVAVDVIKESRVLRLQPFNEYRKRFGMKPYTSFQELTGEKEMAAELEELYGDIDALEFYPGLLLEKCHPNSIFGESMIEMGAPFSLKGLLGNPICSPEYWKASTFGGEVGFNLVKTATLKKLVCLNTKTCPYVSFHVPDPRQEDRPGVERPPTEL
From the text: (§3) Those skilled in the art will appreciate that an evaluation of the selectivity and efficacy of binding of the NSAID derivative to the COX-2 enzyme, e.g., after the derivative is synthesized, can be desirable. […] One example of an in vitro screening method takes advantage of the fact that both human and murine recombinant COX-2 can be expressed and isolated in pure form from an Sf9 cell expression system. […] Alternatively, membrane preparations from outdated human platelets can provide a source of human COX-1. […] The reaction is stopped by the addition of ethanol/methanol/1 M citrate, pH 4.0 (30:4:1). The extracted products are separated by thin layer chromatography (TLC), which allows quantitation of total product formation as well as assessment of product distribution. This assay is useful to define IC50 values for inhibition of either enzyme, and to determine time-dependency of inhibition. It also provides information concerning changes in products formed as a result of inhibition.
(§4) Reactions were terminated by solvent extraction in Et2O/CH3OH/1 M citrate, pH 4.0 (30:4:1). The phases were separated by centrifugation at 2000 g for 5 minutes and the organic phase was spotted on a 20×20 cm TLC plate (Lieselgel 60, EMD Chemicals, Inc., Gibbstown, N.J., United States of America). The plate was developed in EtOAc/CH2Cl2/glacial AcOH (75:25:1) at 4° C. Radiolabeled prostanoid products were quantitatively determined with a radioactivity scanner available from Bioscan, Inc. (Washington, D.C., United States of America). The percentage of total products observed at different concentrations of the presently disclosed compositions was divided by the percentage of products observed for protein samples preincubated for the same amount of time with DMSO.

[4] = biological target: T3, COX-2 (Homo sapiens, UniProt P35354); test: IC50 determinations using purified enzymes (TLC assay), COX-2; assay type: biochemical; parameters: made in house; host or cells: Sf9 insect cells; details: assayed against purified enzymes, read-out: IC50 COX-2
T3 sequence (P35354 18-604): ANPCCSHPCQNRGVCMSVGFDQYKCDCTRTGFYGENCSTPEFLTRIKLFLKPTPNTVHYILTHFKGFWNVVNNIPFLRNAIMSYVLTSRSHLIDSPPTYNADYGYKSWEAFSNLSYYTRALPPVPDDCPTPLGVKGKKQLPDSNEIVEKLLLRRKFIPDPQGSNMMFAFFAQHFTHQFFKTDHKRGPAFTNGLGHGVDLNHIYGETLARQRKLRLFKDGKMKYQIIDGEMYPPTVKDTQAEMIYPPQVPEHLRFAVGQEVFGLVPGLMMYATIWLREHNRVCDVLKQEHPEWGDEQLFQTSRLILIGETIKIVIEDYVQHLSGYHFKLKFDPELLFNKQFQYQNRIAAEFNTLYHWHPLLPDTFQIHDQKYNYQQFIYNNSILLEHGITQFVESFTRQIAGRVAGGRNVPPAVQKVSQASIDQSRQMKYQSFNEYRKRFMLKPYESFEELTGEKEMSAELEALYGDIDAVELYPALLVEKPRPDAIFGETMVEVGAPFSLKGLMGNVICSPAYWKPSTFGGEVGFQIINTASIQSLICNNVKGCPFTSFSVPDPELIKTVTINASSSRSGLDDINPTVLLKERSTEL
From the text: as §3, §4

[5] = test system: RAW264.7 cells; test: In vitro cell imaging, LPS/IFNγ-activated RAW264.7 cells; assay type: cell-based, mouse; details: for fluorescence of control compounds in these in vitro assays: RAW264.7, HEK293/COX-2 and 1483 imaging assays
Procedure: RAW264.7 cells (a line established from a tumor induced in a mouse by Abelson murine leukemia virus and available from the American Type Culture Collection, Manassas, Va., United States of America) were grown overnight on 35 mm culture dishes (MatTek Corp., Ashland, Mass., United States of America) with glass coverslips in Dulbecco's Modified Eagle Medium (DMEM) plus 10% heat-inactivated fetal bovine serum (FBS). Platings of cells were done in order to reach 30% confluency the next day. After overnight growth, the growth medium was replaced with 2 ml serum-free DMEM per dish. Individual dishes then received 200 ng/ml LPS plus 10 units/ml murine IFNγ (Roche Applied Science, Indianapolis, Ind., United States of America) for 6 hours to induce COX-2. […] After 30 minutes, the cells were washed briefly three times in medium and incubated in Hank's balanced salt solution (HBSS)/Tyrode's for 60 minutes at 37° C. After 60 minutes, the HBSS/Tyrode's was removed and fresh HBSS/Tyrode's was added. The cells were immediately imaged using a Zeiss Axiovert 25 Microscope (propidium iodide filter/2-3 sec exposure/gain of 2).

[6] = biological target: T4, COX-2 (Mus musculus, UniProt Q05769); test: Macrophage assay (RAW264.7), COX-2; assay type: cell-based, murine; details: Table 2; macrophage assay (M); read-out: IC50 COX-2
T4 construct: metabolism by the newly synthesized COX-2; endogenous in cells
T4 sequence (Q05769 18-604): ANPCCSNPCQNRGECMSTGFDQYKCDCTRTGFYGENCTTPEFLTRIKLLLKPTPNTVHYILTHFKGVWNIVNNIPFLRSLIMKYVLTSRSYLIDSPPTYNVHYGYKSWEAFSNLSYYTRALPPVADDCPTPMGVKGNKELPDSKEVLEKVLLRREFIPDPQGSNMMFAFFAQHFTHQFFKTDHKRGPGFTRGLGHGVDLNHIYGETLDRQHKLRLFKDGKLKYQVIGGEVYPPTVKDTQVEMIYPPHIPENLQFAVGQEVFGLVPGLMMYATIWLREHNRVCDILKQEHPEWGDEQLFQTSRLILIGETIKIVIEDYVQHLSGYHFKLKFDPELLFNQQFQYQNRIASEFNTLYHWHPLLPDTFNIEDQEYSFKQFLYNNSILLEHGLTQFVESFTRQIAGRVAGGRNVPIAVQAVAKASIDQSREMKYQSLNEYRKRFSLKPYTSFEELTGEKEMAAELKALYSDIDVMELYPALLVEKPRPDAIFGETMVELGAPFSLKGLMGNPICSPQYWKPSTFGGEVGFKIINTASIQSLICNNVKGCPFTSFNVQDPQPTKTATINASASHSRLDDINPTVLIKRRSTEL
From the text: as §1, §2

pIC50 [1] | Fluor. λem [2] [nm] | Fluor. λex [2] [nm] | pIC50 [3] | pIC50 ([4]; Table 3) | IC50 ([1]; Table 2, macrophage assay (M)) [M] | pIC50 ([4]; Table 2) | IC50 [6] [M] | Structure (SMILES) | fluorescence imaging of cells ([5]; 200 nM, 30 minutes, LPS-activated RAW264.7) | fluorescence of control compounds in these in vitro assays [5]
< 4.60 | 405 | 340 | < 4.60 | 6.10 | – | – | – | COc1ccc2c(c1)c(CC(=O)NCCNC(=O)c1cc3ccccc3oc1=O)c(C)n2C(=O)c1ccc(Cl)cc1 [Compound 27cc, N-{2-(Coumarin-3-carboxylamido)ethyl}-2-{1-(4-chlorobenzoyl)-5-methoxy-2-methyl-1H-indol-3-yl}acetamide] | – | –
< 5.30 | – | 571 | < 4.60 | 6.80 | – | – | – | CCN(CC)c1ccc2c(-c3ccc(S(=O)(=O)NCCOCCOCCOCCOCCC(=O)NCCCCNC(=O)Cc4c(C)n(C(=O)c5ccc(Cl)cc5)c5ccc(OC)cc45)cc3S(=O)(=O)[O-])c3ccc(=[N+](CC)CC)cc-3oc2c1 [Compound 27iii, 5-(N-(23-(1-(4-chlorobenoyl)-5-methoxy-2-methyl-1H-indol-3-yl)-15,22-dioxo-3,6,9,12-tetraoxa-16,21-diazatricosyl)sulfamoyl)-2-(6-(diethylamino)-3-(diethyliminio)-3H-xanthen-9-yl)benzenesulfonate] | – | –
– | – | – | < 4.60 | < 4.60 | – | – | – | COc1ccc2c(c1)c(CC(=O)NCCNC(=O)c1ccc(C(=O)[O-])c(C3=c4cc5c6c(c4Oc4c3cc3c7c4CCCN7CCC3)CCC[N+]=6CCC5)c1)c(C)n2C(=O)c1ccc(Cl)cc1 [Compound 27ww] | No fluorescence above background | minimal fluorescence
< 6.00 | 497 | 343 | < 4.60 | 7.12 | – | – | – | COc1ccc2c(c1)c(CC(=O)NCCCNS(=O)(=O)c1cccc3c(N(C)C)cccc13)c(C)n2C(=O)c1ccc(Cl)cc1 [Compound 27y] | – | –
< 6.00 | 504 | 324 | < 4.60 | 7.17 | – | – | – | COc1ccc2c(c1)c(CC(=O)NCCCCNS(=O)(=O)c1cccc3c(N(C)C)cccc13)c(C)n2C(=O)c1ccc(Cl)cc1 [Compound 27z] | – | –
– | – | – | < 4.60 | < 4.60 | – | – | – | COc1ccc2c(c1)c(CCNC(=O)c1ccc(C3=c4cc5c6c(c4Oc4c3cc3c7c4CCCN7CCC3)CCC[N+]=6CCC5)c(C(=O)[O-])c1)c(C)n2Cc1ccc(Br)cc1 [Compound 28f] | – | minimal fluorescence
– | – | – | – | – | > 5e-06 | 5.05 | 1.4e-06 | Cc1ccc(-c2cc(CCC(=O)O)nn2-c2ccc(S(N)(=O)=O)cc2)cc1 [Compound 30c, 3-[1-{p-(Sulfonamido)phenyl}-5-p-tolyl-1H-pyrazol-3-yl]propanoic acid] | – | –
< 5.30 | – | – | – | ≤ 4.60 | – | – | – | CCN(CC)c1ccc2c(-c3ccc(S(=O)(=O)NCCOCCOCCOCCOCCC(=O)NCCNC(=O)CCc4cc(-c5ccc(C)cc5)n(-c5ccc(S(N)(=O)=O)cc5)n4)cc3S(=O)(=O)[O-])c3ccc(=[N+](CC)CC)cc-3oc2c1 [Compound 30f] | – | –
